Measured values taken from the NIST ThermoML archive (doi:10.1016/j.fluid.2016.12.017).

Experiment: mean ionic activity coefficient (dimensionless); mn = molality of the nth substance listed, in mol/kg
Details: 101 kPa, Liquid, galvanic cell

CCn1cc[n+](C)c1.[Br-] [1-ethyl-3-methylimidazolium bromide] + O
mean ionic activity coefficient
Details	298.2 K	308.2 K
m1 = 0.01	0.888	0.895
m1 = 0.0199	0.846	0.859
m1 = 0.0397	0.791	0.813
m1 = 0.0592	0.753	0.781
m1 = 0.0785	0.723	0.757
m1 = 0.1001	0.696	0.735
m1 = 0.1995	0.611	0.665
m1 = 0.3996	0.523	0.585
m1 = 0.6004	0.474	0.534
m1 = 0.7996	0.441	0.497
m1 = 1.001	0.417	0.467
m1 = 1.2	0.398	0.442
m1 = 1.4	0.382	0.42
m1 = 1.6	0.367	0.4
m1 = 1.8	0.354	0.382
m1 = 2	0.341	0.366
m1 = 2.2	–	0.351
